Test results reported in patent US8288390B2, “Benzofuran derivatives” (Takeda Pharmaceutical Company Limited, priority 2009, dated 2012).

## Cc1c(C)c(N2CCN(c3ccnc(Cl)n3)CC2)c(C)c2c1OC(C)(C)C2 [Example 82, 2-Chloro-4-[4-(2,2,4,6,7-pentamethyl-2,3-dihydro-1-benzofuran-5-yl)piperazin-1-yl]pyrimidine]
  melting point: 192 to 193 °C
